{"source": "patent US20060069132A1", "about": "“Azolecarboxamide herbicides” (priority 2004, published 2006)", "key": {"wild oat": {"system": "wild oat", "test": "Test B postemergence herbicide test", "assay_type": "in vivo, Avena fatua", "conditions": "postemergence, visual rating, scale 0 (no effect) to 100 (complete control)", "how_it_was_run": "(§1)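 Formulated test chemicals went onto postemergence plants measuring 2 to 18 cm, at one to four leaves. For the paddy assay, species had reached two leaves. Scoring took place 13–15 days later by eye, relative to untreated plants, using 0 for no effect up to 100 for full control.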"}, "morningglory": {"system": "morningglory", "test": "Test B pre-/postemergence herbicide test", "assay_type": "in vivo, Ipomoea coccinea", "conditions": "for Plant response rating, Morningglory: preemergence; for Morningglory plant response rating: postemergence, visual rating, scale 0 (no effect) to 100 (complete control)", "how_it_was_run": "(§2)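 Visual rating, 0 (no effect) to 100 (complete control), versus untreated controls after 13–15 d in greenhouse. Pre- and postemergence applications (postemergence plants 2–18 cm, 1–4 leaves); flooded paddy arm at 2-leaf stage. Compounds in non-phytotoxic solvent plus surfactant.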"}, "rice [1]": {"system": "rice", "test": "Test B flooded paddy test", "assay_type": "in vivo, Oryza sativa", "conditions": "1000 g ai/ha, visual rating, scale 0 to 100 (0 no effect, 100 complete control), 13 to 15 days", "how_it_was_run": "(§3)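 Visual ratings, 0 (no effect) to 100 (complete control), made versus controls after 13–15 d greenhouse. Paddy plants treated at 2-leaf stage; postemergence plants at 1- to 4-leaf stage, 2–18 cm tall.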"}, "rice [2]": {"system": "rice", "test": "Test B pre-/postemergence herbicide test", "assay_type": "in vivo, Oryza sativa", "conditions": "preemergence", "source_text": "Seeds selected from barnyardgrass (Echinochloa crus-galli (L.) Beauv.), Surinam grass (Urochloa decumbens (Staph) R. D. Webster, previously named Brachiaria decumbens Stapf), cocklebur (Xanthium strumarium L.), corn (Zea mays L.), large crabgrass (Digitaria sanguinalis (L.) Scop.), giant foxtail (Setaria faberi Herim.), lambsquarters (Chenopodium album L.), morningglory (Ipomoea coccinea L.), pigweed (Amaranthus retroflexus L.), rice (Oryza sativa L.) and velvetleaf (Abutilon theophrasti Medik.) were planted and treated preemergence with test chemicals formulated in a non-phytotoxic solvent mixture which included a surfactant.\nAt the same time, plants selected from these crop and weed species and also blackgrass (Alopecurus myosuroides Huds.), wheat (Triticum aestivum L.) and wild oat (Avena fatua L.) were treated with postemergence applications of test chemicals formulated in the same manner. Plants ranged in height from 2 to 18 cm (1- to 4-leaf stage) for postemergence treatments. Plant species in the flooded paddy test consisted of rice (Oryza sativa L.), small flower umbrella sedge (Cyperus difformis L.), ducksalad (Heteranthera limosa (Sw.) Willd.) and barnyardgrass (Echinochloa crus-galli (L.) Beauv.) grown to the 2-leaf stage for testing. Treated plants and controls were maintained in a greenhouse for 13 to 15 days, after which time all species were compared to controls and visually evaluated. Plant response ratings, summarized in Table B, are based on a scale of 0 to 100 where 0 is no effect and 100 is complete control. A dash (-) response means no test result."}, "blackgrass": {"system": "blackgrass", "test": "Test B postemergence herbicide test", "assay_type": "in vivo, Alopecurus myosuroides", "conditions": "postemergence, visual rating, scale 0 (no effect) to 100 (complete control)", "how_it_was_run": "as §3"}, "velvetleaf": {"system": "velvetleaf", "test": "Test B pre-/postemergence herbicide test", "assay_type": "in vivo, Abutilon theophrasti", "conditions": "for Plant response rating, Velvetleaf: preemergence; for Velvetleaf plant response rating: postemergence, visual rating, scale 0 (no effect) to 100 (complete control)", "how_it_was_run": "(§4)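 Seeds were planted and treated preemergence with compounds formulated in a non-phytotoxic solvent mixture containing surfactant, while plants at the 1- to 4-leaf stage (2 to 18 cm) received postemergence sprays. Flooded paddy plants were grown to the 2-leaf stage. After 13 to 15 days in a greenhouse, injury was visually rated 0–100 against untreated controls.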"}, "giant foxtail": {"system": "giant foxtail", "test": "Test B pre-/postemergence herbicide test", "assay_type": "in vivo, Setaria faberi", "conditions": "for Plant response rating, Foxtail, Giant: preemergence; for Foxtail, Giant plant response rating: postemergence, visual rating, scale 0 (no effect) to 100 (complete control)", "how_it_was_run": "as §4"}, "barnyardgrass [3]": {"system": "barnyardgrass", "test": "Test B flooded paddy test", "assay_type": "in vivo, Echinochloa crus-galli", "conditions": "1000 g ai/ha, visual rating, scale 0 to 100 (0 no effect, 100 complete control), 13 to 15 days", "how_it_was_run": "as §3"}, "corn": {"system": "corn", "test": "Test B pre-/postemergence herbicide test", "assay_type": "in vivo, Zea mays", "conditions": "for Plant response rating, Corn: preemergence; for Corn plant response rating: postemergence, visual rating, scale 0 (no effect) to 100 (complete control)", "how_it_was_run": "as §4"}, "lambsquarters": {"system": "lambsquarters", "test": "Test B pre-/postemergence herbicide test", "assay_type": "in vivo, Chenopodium album", "conditions": "for Plant response rating, Lambsquarters: preemergence; for Lambsquarters plant response rating: postemergence, visual rating, scale 0 (no effect) to 100 (complete control)", "how_it_was_run": "as §4"}, "ducksalad": {"system": "ducksalad", "test": "Test B flooded paddy test", "assay_type": "in vivo, Heteranthera limosa", "conditions": "1000 g ai/ha, visual rating, scale 0 to 100 (0 no effect, 100 complete control), 13 to 15 days", "how_it_was_run": "as §3"}, "pigweed": {"system": "pigweed", "test": "Test B pre-/postemergence herbicide test", "assay_type": "in vivo, Amaranthus retroflexus", "conditions": "for Plant response rating, Pigweed: preemergence; for Pigweed plant response rating: postemergence, visual rating, scale 0 (no effect) to 100 (complete control)", "how_it_was_run": "as §4"}, "wheat": {"system": "wheat", "test": "Test B postemergence herbicide test", "assay_type": "in vivo, Triticum aestivum", "parameters": "key to Wheat plant response rating: 0 = no effect, 100 = complete control", "conditions": "postemergence, 500 g ai/ha; visual rating, scale 0 (no effect) to 100 (complete control)", "how_it_was_run": "as §1"}, "[4]": {"system": "small flower umbrella sedge", "test": "Test B flooded paddy test", "assay_type": "in vivo, Cyperus difformis", "conditions": "1000 g ai/ha, visual rating, scale 0 to 100 (0 no effect, 100 complete control), 13 to 15 days", "how_it_was_run": "as §3"}, "Surinam grass": {"system": "Surinam grass", "test": "Test B pre-/postemergence herbicide test", "assay_type": "in vivo, Urochloa decumbens", "conditions": "for Plant response rating, Surinam Grass: preemergence; for Surinam Grass plant response rating: postemergence, visual rating, scale 0 (no effect) to 100 (complete control)", "how_it_was_run": "as §4"}, "cocklebur": {"system": "cocklebur", "test": "Test B pre-/postemergence herbicide test", "assay_type": "in vivo, Xanthium strumarium", "conditions": "for Plant response rating, Cocklebur: preemergence; for Cocklebur plant response rating: postemergence, visual rating, scale 0 (no effect) to 100 (complete control)", "how_it_was_run": "as §2"}, "large crabgrass": {"system": "large crabgrass", "test": "Test B pre-/postemergence herbicide test", "assay_type": "in vivo, Digitaria sanguinalis", "conditions": "for Plant response rating, Crabgrass, Large: preemergence; for Crabgrass, Large plant response rating: postemergence, visual rating, scale 0 (no effect) to 100 (complete control)", "how_it_was_run": "as §4"}, "barnyardgrass [5]": {"system": "barnyardgrass", "test": "Test B pre-/postemergence herbicide test", "assay_type": "in vivo, Echinochloa crus-galli", "conditions": "for Plant response rating, Barnyardgrass: preemergence; for Barnyardgrass plant response rating: postemergence, visual rating, scale 0 (no effect) to 100 (complete control)", "how_it_was_run": "as §2"}, "[6]": {"conditions": "500 g ai/ha, visual rating 0-100, 0 no effect, 100 complete control"}, "[7]": {"conditions": "125 g ai/ha, 0 to 100 scale, 0 is no effect, 100 is complete control"}}, "data": [{"smiles": "CCOC(=O)c1ccnc(NC(=O)c2cc(C(C)(C)C)nn2CC)c1", "note": "[Compound 157]", "values": [{"measurement": "Oat, Wild plant response rating", "setting": "wild oat; 125 g ai/ha", "result": 10}, {"measurement": "Oat, Wild plant response rating", "setting": "wild oat; 500 g ai/ha", "result": 40}, {"measurement": "Plant response rating, Morningglory", "setting": "morningglory; [6]", "result": 40}, {"measurement": "Morningglory plant response rating", "setting": "morningglory; 125 g ai/ha", "result": 0}, {"measurement": "Morningglory plant response rating", "setting": "morningglory; 500 g ai/ha", "result": 30}, {"measurement": "Plant response rating, Morningglory", "setting": "morningglory; [7]", "result": 0}, {"measurement": "Rice plant response rating", "setting": "rice [1]", "result": 30}, {"measurement": "Plant response rating, Rice", "setting": "rice [2]; [6]", "result": 0}, {"measurement": "Plant response rating, Rice", "setting": "rice [2]; [7]", "result": 0}, {"measurement": "Blackgrass plant response rating", "setting": "blackgrass; 125 g ai/ha", "result": 10}, {"measurement": "Blackgrass plant response rating", "setting": "blackgrass; 500 g ai/ha", "result": 20}, {"measurement": "Plant response rating, Velvetleaf", "setting": "velvetleaf; [6]", "result": 0}, {"measurement": "Velvetleaf plant response rating", "setting": "velvetleaf; 125 g ai/ha", "result": 50}, {"measurement": "Velvetleaf plant response rating", "setting": "velvetleaf; 500 g ai/ha", "result": 80}, {"measurement": "Plant response rating, Velvetleaf", "setting": "velvetleaf; [7]", "result": 0}, {"measurement": "Plant response rating, Foxtail, Giant", "setting": "giant foxtail; [6]", "result": 0}, {"measurement": "Foxtail, Giant plant response rating", "setting": "giant foxtail; 125 g ai/ha", "result": 30}, {"measurement": "Foxtail, Giant plant response rating", "setting": "giant foxtail; 500 g ai/ha", "result": 40}, {"measurement": "Plant response rating, Foxtail, Giant", "setting": "giant foxtail; [7]", "result": 0}, {"measurement": "Barnyardgrass plant response rating", "setting": "barnyardgrass [3]", "result": 20}, {"measurement": "Plant response rating, Corn", "setting": "corn; [6]", "result": 0}, {"measurement": "Corn plant response rating", "setting": "corn; 125 g ai/ha", "result": 0}, {"measurement": "Corn plant response rating", "setting": "corn; 500 g ai/ha", "result": 0}, {"measurement": "Plant response rating, Corn", "setting": "corn; [7]", "result": 0}, {"measurement": "Plant response rating, Lambsquarters", "setting": "lambsquarters; [6]", "result": 30}, {"measurement": "Lambsquarters plant response rating", "setting": "lambsquarters; 125 g ai/ha", "result": 20}, {"measurement": "Lambsquarters plant response rating", "setting": "lambsquarters; 500 g ai/ha", "result": 70}, {"measurement": "Plant response rating, Lambsquarters", "setting": "lambsquarters; [7]", "result": 0}, {"measurement": "Ducksalad plant response rating", "setting": "ducksalad", "result": 0}, {"measurement": "Plant response rating, Pigweed", "setting": "pigweed; [6]", "result": 40}, {"measurement": "Pigweed plant response rating", "setting": "pigweed; 125 g ai/ha", "result": 40}, {"measurement": "Pigweed plant response rating", "setting": "pigweed; 500 g ai/ha", "result": 80}, {"measurement": "Plant response rating, Pigweed", "setting": "pigweed; [7]", "result": 0}, {"measurement": "Wheat plant response rating", "setting": "wheat", "result": 20}, {"measurement": "Sedge, Umbrella plant response rating", "setting": "[4]", "result": 40}, {"measurement": "Plant response rating, Surinam Grass", "setting": "Surinam grass; [6]", "result": 0}, {"measurement": "Surinam Grass plant response rating", "setting": "Surinam grass; 125 g ai/ha", "result": 20}, {"measurement": "Surinam Grass plant response rating", "setting": "Surinam grass; 500 g ai/ha", "result": 20}, {"measurement": "Plant response rating, Surinam Grass", "setting": "Surinam grass; [7]", "result": 0}, {"measurement": "Plant response rating, Cocklebur", "setting": "cocklebur; [6]", "result": 20}, {"measurement": "Cocklebur plant response rating", "setting": "cocklebur; 125 g ai/ha", "result": 10}, {"measurement": "Cocklebur plant response rating", "setting": "cocklebur; 500 g ai/ha", "result": 90}, {"measurement": "Plant response rating, Cocklebur", "setting": "cocklebur; [7]", "result": 0}, {"measurement": "Plant response rating, Crabgrass, Large", "setting": "large crabgrass; [6]", "result": 20}, {"measurement": "Crabgrass, Large plant response rating", "setting": "large crabgrass; 125 g ai/ha", "result": 0}, {"measurement": "Crabgrass, Large plant response rating", "setting": "large crabgrass; 500 g ai/ha", "result": 20}, {"measurement": "Plant response rating, Crabgrass, Large", "setting": "large crabgrass; [7]", "result": 0}, {"measurement": "Plant response rating, Barnyardgrass", "setting": "barnyardgrass [5]; [6]", "result": 0}, {"measurement": "Barnyardgrass plant response rating", "setting": "barnyardgrass [5]; 125 g ai/ha", "result": 0}, {"measurement": "Barnyardgrass plant response rating", "setting": "barnyardgrass [5]; 500 g ai/ha", "result": 20}, {"measurement": "Plant response rating, Barnyardgrass", "setting": "barnyardgrass [5]; [7]", "result": 0}]}]}
